Assay results published in ChEMBL document CHEMBL5143540, “Design, synthesis and biological evaluation of nitrofuran-1,3,4-oxadiazole hybrids as new antitubercular agents” (Bioorg Med Chem, 2022).
Values after ≈ are worked out from the molar mass of the structure shown.

What was measured:
[1] = system: Mycobacterium tuberculosis; test: Antitubercular activity against Mycobacterium tuberculosis H37Ra ATCC 25177 assessed as reduction in bacterial growth incubated for 7 days by Alamar blue assay; assay type: functional; conditions: H37Ra ATCC 25177, 168 h, time 7 day
[2] = Tmax in ICR mouse at 25 mg/kg, po measured upto 24 hrs by HPLC analysis; assay type: ADME, organism-based; conditions: in vivo
[3] = Volume of distribution in ICR mouse at 25 mg/kg, po measured upto 24 hrs by HPLC analysis; assay type: ADME, organism-based; conditions: in vivo
[4] = Cytotoxicity against african green monkey Vero cells assessed as reduction in cell viability after 72 hrs by MTT assay; assay type: toxicity, cell-based; conditions: chlorocebus sabaeus
[5] = Half life in ICR mouse at 25 mg/kg, po measured upto 24 hrs by HPLC analysis; assay type: ADME, organism-based; conditions: in vivo
[6] = Clearance in ICR mouse at 25 mg/kg, po measured upto 24 hrs by HPLC analysis; assay type: ADME, organism-based; conditions: in vivo
[7] = Cmax in ICR mouse at 25 mg/kg, po measured upto 24 hrs by HPLC analysis; assay type: ADME, organism-based; parameters: dose 25 mg/kg, time < 24 hrs, route po; conditions: in vivo
[8] = AUC(0 to infinity) in ICR mouse at 25 mg/kg, po measured upto 24 hrs by HPLC analysis; assay type: ADME, organism-based; parameters: dose 25 mg/kg, time < 24 hrs, route po; conditions: in vivo
[9] = MRT in ICR mouse at 25 mg/kg, po measured upto 24 hrs by HPLC analysis; assay type: ADME, organism-based; conditions: in vivo
hERG (KCNH2) = hERG (KCNH2) (Homo sapiens, UniProt Q12809); test: Inhibition of human ERG expressed in HEK293 cells at 10 uM by whole cell electrophysiology assay relative to control; assay type: toxicity, cell-based; conditions: HEK293 cells expressing hERG
[10] = target: Voltage-gated inwardly rectifying potassium channel KCNH2 (Homo sapiens, UniProt Q12809); test: Inhibition of human ERG expressed in HEK293 cells by whole cell electrophysiology assay; assay type: toxicity, cell-based
Voltage-gated inwardly rectifying potassium channel KCNH2, sequence (Q12809 whole entry): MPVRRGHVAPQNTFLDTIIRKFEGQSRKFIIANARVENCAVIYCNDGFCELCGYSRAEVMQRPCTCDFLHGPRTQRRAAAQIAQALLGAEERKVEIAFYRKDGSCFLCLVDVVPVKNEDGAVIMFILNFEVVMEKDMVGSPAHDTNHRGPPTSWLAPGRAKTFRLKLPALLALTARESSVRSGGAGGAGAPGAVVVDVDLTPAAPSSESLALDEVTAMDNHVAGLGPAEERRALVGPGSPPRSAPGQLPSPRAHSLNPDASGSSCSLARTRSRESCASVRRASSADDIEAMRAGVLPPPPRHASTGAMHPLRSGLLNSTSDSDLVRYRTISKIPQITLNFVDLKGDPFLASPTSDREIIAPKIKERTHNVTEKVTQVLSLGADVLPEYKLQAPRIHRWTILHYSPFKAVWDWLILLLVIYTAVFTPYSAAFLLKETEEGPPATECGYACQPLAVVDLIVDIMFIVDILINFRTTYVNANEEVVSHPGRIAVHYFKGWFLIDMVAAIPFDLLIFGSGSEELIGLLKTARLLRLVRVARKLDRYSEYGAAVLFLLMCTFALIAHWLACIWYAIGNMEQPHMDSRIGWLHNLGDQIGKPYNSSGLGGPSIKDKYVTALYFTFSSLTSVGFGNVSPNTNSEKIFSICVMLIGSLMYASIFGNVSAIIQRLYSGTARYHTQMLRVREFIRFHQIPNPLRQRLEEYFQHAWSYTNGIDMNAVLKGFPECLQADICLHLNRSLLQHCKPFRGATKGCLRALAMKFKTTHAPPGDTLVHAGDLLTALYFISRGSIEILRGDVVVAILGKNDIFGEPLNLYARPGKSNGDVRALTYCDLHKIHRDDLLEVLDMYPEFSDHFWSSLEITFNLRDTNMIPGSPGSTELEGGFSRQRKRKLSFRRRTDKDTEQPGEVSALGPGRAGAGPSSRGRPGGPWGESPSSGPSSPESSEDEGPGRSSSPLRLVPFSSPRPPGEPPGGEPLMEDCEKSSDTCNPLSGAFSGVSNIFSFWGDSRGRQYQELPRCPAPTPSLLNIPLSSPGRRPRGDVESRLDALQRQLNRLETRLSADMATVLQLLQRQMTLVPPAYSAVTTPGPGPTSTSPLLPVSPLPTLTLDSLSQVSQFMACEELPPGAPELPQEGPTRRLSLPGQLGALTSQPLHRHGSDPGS

hERG (KCNH2), sequence (Q12809 whole entry): as above

Compound	MIC [1]	also measured
O=C(Nc1nnc(-c2ccc(Cl)cc2)o1)c1ccc([N+](=O)[O-])o1	0.937 mg/L (≈ 2.8 µM)	–
COc1ccc(-c2nnc(CNC(=O)c3ccc([N+](=O)[O-])o3)o2)cc1	7.07 mg/L (≈ 20.5 µM)	–
O=[N+]([O-])c1ccc(-c2nnc(-c3ccc(C(F)(F)F)cc3)o2)o1	0.125 mg/L (≈ 0.384 µM)	–
O=[N+]([O-])c1ccc(-c2nnc(C3CCCO3)o2)o1 (configuration not stated)	2 mg/L (≈ 7.96 µM)	–
O=C(NCc1nnc(-c2ccccc2)o1)c1ccc([N+](=O)[O-])o1	2.43 mg/L (≈ 7.74 µM)	–
CCC(CC)c1nnc(-c2ccc([N+](=O)[O-])o2)o1	0.911 mg/L (≈ 3.63 µM)	–
O=C(Nc1nnc(C2CCCO2)o1)c1ccc([N+](=O)[O-])o1 (configuration not stated)	0.007 mg/L (≈ 0.0238 µM)	–
O=[N+]([O-])c1ccc(-c2nnc(-c3ccccc3)o2)o1	1.59 mg/L (≈ 6.17 µM)	–
COc1ccc(-c2nnc(-c3ccc([N+](=O)[O-])o3)o2)cc1	0.475 mg/L (≈ 1.65 µM)	–
CC(C)(C)c1ccc(-c2nnc(CNC(=O)c3ccc([N+](=O)[O-])o3)o2)cc1	4.83 mg/L (≈ 13 µM)	Tmax [2]: 15 min; Vd [3]: 227 L/kg; CC50 at 72 h [4]: 3.62 mg/L (≈ 9.79 µM); half-life [5]: 40.2 min; CL/F [6]: 276 L/h/kg; Cmax [7]: 0.139 µg/mL; AUC(0-inf) [8]: 0.0993 µg·h/mL; MRT [9]: 55.2 min
CC(C)(C)c1ccc(-c2nnc(NC(=O)c3ccc([N+](=O)[O-])o3)o2)cc1	> 16 mg/L	–
CC(C)(C)c1ccc(-c2nnc(-c3ccc([N+](=O)[O-])o3)o2)cc1	0.06 mg/L (≈ 0.192 µM)	–
O=C(Nc1nnc(-c2ccccn2)o1)c1ccc([N+](=O)[O-])o1	0.03 mg/L (≈ 0.0996 µM)	–
O=C(NCc1nnc(-c2ccc(OC(F)(F)F)cc2)o1)c1ccc([N+](=O)[O-])o1	9.86 mg/L (≈ 24.8 µM)	CC50 at 72 h [4]: 3.48 mg/L (≈ 8.74 µM)
O=[N+]([O-])c1ccc(-c2nnc(-c3ccc(OC(F)(F)F)cc3)o2)o1	0.178 mg/L (≈ 0.522 µM)	–
O=C(Nc1nnc(C2CCCCC2)o1)c1ccc([N+](=O)[O-])o1	0.025 mg/L (≈ 0.0816 µM)	–

Compound	MIC [1]	also measured
O=C(Nc1nnc(-c2ccncc2)o1)c1ccc([N+](=O)[O-])o1	0.038 mg/L (≈ 0.126 µM)	–
CC(C)c1nnc(-c2ccc([N+](=O)[O-])o2)o1	0.709 mg/L (≈ 3.18 µM)	–
O=C(Nc1nnc(-c2ccc(Br)cc2)o1)c1ccc([N+](=O)[O-])o1	0.795 mg/L (≈ 2.1 µM)	Tmax [2]: 15 min; Vd [3]: 1.46 L/kg; CC50 at 72 h [4]: 57.3 mg/L (≈ 151 µM); half-life [5]: 270 min; inhibition at 10 µM (hERG (KCNH2)): 11.3%; CL/F [6]: 0.227 L/h/kg; Cmax [7]: 15.8 µg/mL; AUC(0-inf) [8]: 110 µg·h/mL; IC50 [10]: > 10 µM; MRT [9]: 382 min
O=[N+]([O-])c1ccc(-c2nnc(-c3ccc(Br)cc3)o2)o1	0.597 mg/L (≈ 1.78 µM)	–
O=[N+]([O-])c1ccc(-c2nnc(C3CCCCC3)o2)o1	1.97 mg/L (≈ 7.47 µM)	–
O=C(NCc1nnc(-c2ccc(C(F)(F)F)cc2)o1)c1ccc([N+](=O)[O-])o1	3.73 mg/L (≈ 9.75 µM)	CC50 at 72 h [4]: 3.56 mg/L (≈ 9.32 µM)
COc1ccc(Cc2nnc(NC(=O)c3ccc([N+](=O)[O-])o3)o2)cc1	0.02 mg/L (≈ 0.0581 µM)	–
COc1ccc(-c2nnc(NC(=O)c3ccc([N+](=O)[O-])o3)o2)cc1	0.191 mg/L (≈ 0.578 µM)	–
O=C(Nc1nnc(-c2cccnc2)o1)c1ccc([N+](=O)[O-])o1	0.037 mg/L (≈ 0.123 µM)	–
O=C(Nc1nnc(-c2ccc(F)cc2)o1)c1ccc([N+](=O)[O-])o1	2.47 mg/L (≈ 7.77 µM)	–
O=C(Nc1nnc(-c2ccc(C(F)(F)F)cc2)o1)c1ccc([N+](=O)[O-])o1	0.999 mg/L (≈ 2.71 µM)	–
O=C(Nc1nnc(-c2ccc(OC(F)(F)F)cc2)o1)c1ccc([N+](=O)[O-])o1	1.23 mg/L (≈ 3.2 µM)	–
NNC(=O)c1ccncc1 [ISONIAZID]	> 16 mg/L	–
O=c1nc(N2CCN(CC3CCCCC3)CC2)sc2c([N+](=O)[O-])cc(C(F)(F)F)cc12 [MACOZINONE]	–	Vd [3]: 56.8 L/kg; CL/F [6]: 16.7 L/h/kg
CO[C@H]1/C=C/O[C@@]2(C)Oc3c(C)c(O)c4c(O)c(c(/C=N/N5CCN(C)CC5)c(O)c4c3C2=O)NC(=O)/C(C)=C\C=C\[C@H](C)[C@H](O)[C@@H](C)[C@@H](O)[C@@H](C)[C@H](OC(C)=O)[C@@H]1C [RIFAMPIN]	> 16 mg/L	–
